In assay [1] the target is T1, recombinant human Wee1A kinase (Homo sapiens, UniProt P30291).
T1 construct: full length Wee1A kinase was expressed by baculovirus in insect cells; purchased Invitrogen PV3817; host or cells: insect cells (baculovirus)
As to the kind of experiment: LanthaScreen Europium (Eu) Kinase Binding Assay, Wee1A kinase (TR-FRET tracer displacement). To be noted: 30 nM tracer 178, 5 nM Wee1A kinase, 60 minutes at room temperature. An excerpt:
We used a LanthaScreen Europium (Eu) Kinase Binding Assay to determine the binding of provided compounds to Wee1A kinase. The assay utilizes an Alexa Fluor 647-labeled ATP competitive kinase tracer that binds to the ATP binding site of a GST-tagged Wee1A kinase, while a europium (Eu) labeled antibody binds to the GST tag. The proximity of fluorescently labeled kinase tracer and europium (Eu) donor fluorophore antibody leads to fluorescence resonance energy transfer (FRET) to the fluorescence label (acceptor) upon excitation of the Eu (donor). Displacement of tracer from the ATP-binding site by a test compound disturbs the proximity between both labels thus lowering the FRET.
This time resolved-FRET binding assay was performed in white 384-well low volume plates (Greiner, cat #784075), at room temperature in kinase buffer A (KBA; Invitrogen cat #PV3189), consisting of 50 mM HEPES-NaOH (pH 7.5), 0.01% Brij-35, 10 mM MgCl2, and 1 mM EGTA. 5 μl of compound (diluted in reaction buffer, to 1% DMSO) were added to various wells in the plate, followed by 5 μl each of recombinant human Wee1A kinase (full length Wee1A kinase was expressed by baculovirus in insect cells using a N-terminal GST tag (MW: 99.1 kDa) (Invitrogen cat #PV3817) and LanthaScreen Eu-anti-GST antibody (Invitrogen, cat #PV5594). After this, 5 μl of kinase tracer 178 (Invitrogen, cat #PV5593) was added to the plate and the plate was incubated for 60 minutes at room temperature. The final assay conditions in each well were: 30 nM tracer 178, 5 nM Wee1A kinase and 2 nM Eu-labeled antibody in total assay volume of 15 μl. An Envision 2104 (Perkin-Elmer) Plate Reader with the following time-resolve fluorescence setting was used for performing LanthaScreen kinase binding assay. • Excitation 320 nm (30 nm bandpass) • Kinase Tracer Emission 665 nm (10 nm bandpass) • LanthaScreen Eu-anti-Tag Antibody Emission 615 nm (10 nm bandpass) • Dichroic Mirror Instrument dependent • Delay Time 100 μs • Integration Time 200 μs
To calculate the emission ratio, the acceptor/tracer emission ([…]) was divided by the antibody/donor emission ([…]) and the average of duplicate measurement was used for calculations. Data plotting, analysis of binding, and curve fitting was done using Excel add-in XLfit version 5.5.0.5 (IDBS, Guildford, United Kingdom).
A general note: TR-FRET usually uses a lanthanide donor and a delayed reading to cut background.

For assay [2], the system named is Cdk1 phosphorylated on tyrosine 15. As to the kind of experiment: High-content imaging of pCdk1 Y15 by immunofluorescence in ACHN cells. To be noted: Homo sapiens, high-content imaging (IF), 4 h, 7 to 5000 nM, read-out: CDK1 Tyr15 Phosphorylation EC50 (IC50). The format is cell-based. Here is the method:
ACHN renal cell carcinoma cell line (ATCC) was cultured in Minimum Essential Medium Eagle supplemented with 10% fetal calf serum (Sigma), 1% Penicillin-Streptomycin and 10 mM HEPES buffer (HyClone). Cell cultures were kept in a humidified incubator at 37° C. and 5% CO2. Cells were routinely tested for Mycoplasma contamination.
High-content imaging of ACHN renal cell carcinoma cells was used for quantification of CDK1 phosphorylated on tyrosine 15 by immunofluorescence (“IF”). 20 000 cells per well were seeded in tissue culture treated 96 well plates and treated with compounds at concentrations ranging from 7 to 5000 nM for 4 h. Cells were fixated for 15 minutes in 4% paraformaldehyde solution, washed in PBS and permeabilized using 0.2% Triton X-100. Blocking was performed for 1 h at RT using Blocker FL Fluorescent Blocking Buffer (Thermo Scientific), thereafter cells were incubated with primary antibody (rabbit anti-pCDK1 Y^15, #4539, Cell Signaling Technology) at 4° C. ON. Alexa Fluor Plus 647 labelled goat anti-rabbit (A32733. Thermo Scientific) was used as secondary antibody. After washing in PBS, nuclei were stained with DAPI solution for 10 min at RT, protected from light. Cells were imaged using an ImageXpress Pico automated imaging system and CellReporter Xpress software (Molecular Devices). The percentage cells with nuclear positivity for pCdk1 Y^15 compared to DMSO control was determined for each well and drug dose response curves and EC50 values were calculated and visualized using GraphPad Prism.

T1 sequence (P30291 whole entry): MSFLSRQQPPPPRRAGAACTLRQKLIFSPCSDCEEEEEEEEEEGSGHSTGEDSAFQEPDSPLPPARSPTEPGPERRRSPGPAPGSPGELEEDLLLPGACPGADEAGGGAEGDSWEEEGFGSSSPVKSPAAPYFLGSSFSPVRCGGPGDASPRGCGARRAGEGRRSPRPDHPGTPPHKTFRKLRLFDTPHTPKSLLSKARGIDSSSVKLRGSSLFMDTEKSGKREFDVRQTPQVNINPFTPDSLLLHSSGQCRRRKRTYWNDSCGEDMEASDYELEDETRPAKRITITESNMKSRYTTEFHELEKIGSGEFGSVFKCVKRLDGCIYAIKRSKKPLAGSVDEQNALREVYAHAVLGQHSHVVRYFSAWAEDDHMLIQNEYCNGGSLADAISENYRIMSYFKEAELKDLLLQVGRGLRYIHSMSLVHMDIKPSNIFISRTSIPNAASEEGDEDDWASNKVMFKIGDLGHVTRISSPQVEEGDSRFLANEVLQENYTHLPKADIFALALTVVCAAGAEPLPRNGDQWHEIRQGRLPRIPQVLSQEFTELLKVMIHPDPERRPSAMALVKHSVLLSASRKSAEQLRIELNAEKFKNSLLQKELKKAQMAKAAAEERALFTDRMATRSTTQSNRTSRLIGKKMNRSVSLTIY

The IC50 is the concentration that inhibits the measured activity by half. As usually defined, the EC50 is the concentration that produces a half-maximal response. With `COc1nc(Nc2ccc(OCCCN3CCOCC3)c(C)c2)ncc1C(=O)Nc1c(Cl)cccc1Cl` [Compound 148, N-(2,6-dichlorophenyl)-4-methoxy-2-((3-methyl-4-(3-morpholinopropoxy)phenyl)amino)pyrimidine-5-carboxamide], the 50% inhibitory concentration (IC50) in assay [1] was at most 10 nM. The half-maximal effective concentration (EC50) in assay [2] is over 1000 nM.

With `COc1nc(Nc2ccc(C3CCN(C)CC3)c(C)c2)ncc1C(=O)Nc1c(Cl)cccc1C#N` [Compound 137, N-(2-chloro-6-cyanophenyl)-4-methoxy-2-((3-methyl-4-(1-methylpiperidin-4-yl)phenyl)amino)pyrimidine-5-carboxamide], the half-maximal inhibitory concentration (IC50) in assay [1] was 10 to 100 nM. Moreover, the 50% effective concentration (EC50) in assay [2] is over 1000 nM.

For the molecule `CN1CCN(c2ccc(Nc3ncc(C(=O)Nc4c(Cl)cccc4Cl)c(OCCO)n3)cc2)CC1` [Compound 123, N-(2,6-dichlorophenyl)-4-(2-hydroxyethoxy)-2-((4-(4-methylpiperazin-1-yl)phenyl)amino)pyrimidine-5-carboxamide], the IC50 in assay [1] lay within 10 to 100 nM. For the same molecule, in assay [2], the EC50 is over 1000 nM.

For `COc1nc(Nc2ccc(C3CCN(C)CC3)c(C)c2)ncc1C(=O)Nc1c(C)ccc(O)c1C` [Compound 142, N-(3-hydroxy-2,6-dimethylphenyl)-4-methoxy-2-((3-methyl-4-(1-methylpiperidin-4-yl)phenyl)amino)pyrimidine-5-carboxamide], the half-inhibitory concentration (IC50) in assay [1] is at most 10 nM. For the same molecule, the EC50 in assay [2] was at most 100 nM.

Take `COc1nc(Nc2cnn(C)c2)ncc1C(=O)Nc1c(Cl)ccc(O)c1Cl` [Compound 223, N-(2,6-dichloro-3-hydroxyphenyl)-4-methoxy-2-((1-methyl-1H-pyrazol-4-yl)amino)pyrimidine-5-carboxamide]: the IC50 in assay [1] was at most 10 nM. The EC50 in assay [2] was over 1000 nM.

For the molecule `COc1nc(Nc2cnn(C)c2)ncc1C(=O)Nc1c(C)ccc(O)c1C` [Compound 224, N-(3-hydroxy-2,6-xylyl)-4-methoxy-2-(1-methyl-4-pyrazolylamino)-5-pyrimidinecarboxamide], the IC50 in assay [1] was at most 10 nM. Further, the EC50 in assay [2] is over 1000 nM.

As to `COc1nc(Nc2ccc(OC3CCN(C)CC3)c(C)c2)ncc1C(=O)Nc1c(Cl)ccc(O)c1C` [Compound 152, N-(6-chloro-3-hydroxy-2-methylphenyl)-4-methoxy-2-((3-methyl-4-((1-methylpiperidin-4-yl)oxy)phenyl)amino)pyrimidine-5-carboxamide], the IC50 in assay [1] was at most 10 nM. In assay [2], the EC50 lay within 100 to 500 nM.

As for `COc1nc(Nc2ccc(C3CCN(C)CC3)c(C)c2)ncc1C(=O)Nc1c(C)cccc1Br` [Compound 108, N-(2-bromo-6-methylphenyl)-4-methoxy-2-((3-methyl-4-(1-methylpiperidin-4-yl)phenyl)amino)pyrimidine-5-carboxamide], in assay [1], the IC50 is at most 10 nM. Besides, in assay [2], the 50% effective concentration (EC50) was 100 to 500 nM.

Take `COc1nc(Nc2ccc(OC3CCNCC3)c(C)c2)ncc1C(=O)Nc1c(Cl)cccc1Br` [Compound 219]: the concentration for half-maximal inhibition (IC50) in assay [1] was at most 10 nM. In addition, the EC50 in assay [2] is 100 to 500 nM.

With `CCOc1nc(Nc2cnn([C@@H](C)CNC)c2)ncc1C(=O)Nc1c(Cl)cccc1Br` [Compound 201, N-(2-bromo-6-chlorophenyl)-2-{1-[(S)-1-methyl-2-(methylamino)ethyl]-4-pyrazolylamino}-4-ethoxy-5-pyrimidinecarboxamide], the 50% inhibitory concentration (IC50) in assay [1] was at most 10 nM. In addition, the 50% effective concentration (EC50) in assay [2] is over 1000 nM.

As for `CCOc1cc(Nc2ncc(C(=O)Nc3c(Cl)cccc3Br)c(OC)n2)ccc1C1CCN(C)CC1` [Compound 217, N-(2-bromo-6-chlorophenyl)-2-((3-ethoxy-4-(1-methylpiperidin-4-yl)phenyl)amino)-4-methoxypyrimidine-5-carboxamide], the IC50 in assay [1] was at most 10 nM. For the same molecule, the EC50 in assay [2] is 100 to 500 nM.

On to `COc1nc(Nc2ccc(N3CCN(C)CCC3=O)cc2)ncc1C(=O)Nc1c(Cl)cccc1Cl` [Compound 185, N-(2,6-dichlorophenyl)-4-methoxy-2-((4-(4-methyl-7-oxo-1,4-diazepan-1-yl)phenyl)amino)pyrimidine-5-carboxamide], for which the IC50 in assay [1] was at most 10 nM. Also, in assay [2], the EC50 was 100 to 500 nM.

Regarding `COc1nc(Nc2ccc(C3CCN(C)CC3)c(C)c2)ncc1C(=O)Nc1c(F)cccc1Cl` [Compound 113, N-(2-chloro-6-fluorophenyl)-4-methoxy-2-((3-methyl-4-(1-methylpiperidin-4-yl)phenyl)amino)pyrimidine-5-carboxamide], in assay [1], the half-inhibitory concentration (IC50) was at most 10 nM. Further, in assay [2], the 50% effective concentration (EC50) lay within 100 to 500 nM.

As for `COc1nc(Nc2cnn([C@@H]3CCCN(C)CC3)c2)ncc1C(=O)Nc1c(Cl)cccc1Cl` (single isomer, unassigned) [Compound 188], the concentration for half-maximal inhibition (IC50) in assay [1] was at most 10 nM. The concentration giving a half-maximal response (EC50) in assay [2] lay in the range of 100 to 500 nM.

Regarding `COc1nc(Nc2ccc(C3CCN(C)CC3)c(C)c2)ncc1C(=O)Nc1c(C)cccc1Cl` [Compound 106, N-(2-chloro-6-methylphenyl)-4-methoxy-2-((3-methyl-4-(1-methylpiperidin-4-yl)phenyl)amino)pyrimidine-5-carboxamide], the IC50 in assay [1] is at most 10 nM. Also, in assay [2], the EC50 was in the range of 100 to 500 nM.

With `COc1nc(Nc2ccc(N3CCN(C)CC3)c(C)c2)ncc1C(=O)Nc1c(Cl)cccc1Cl` [Compound 161], in assay [1], the half-maximal inhibitory concentration (IC50) is at most 10 nM. Besides, the EC50 in assay [2] was in the range of 100 to 500 nM.

Consider `COc1cccc(Cl)c1NC(=O)c1cnc(Nc2ccc(C3CCN(C)CC3)c(C)c2)nc1OC` [Compound 130, N-(2-chloro-6-methoxyphenyl)-4-methoxy-2-((3-methyl-4-(1-methylpiperidin-4-yl)phenyl)amino)pyrimidine-5-carboxamide], for which, in assay [1], the IC50 is at most 10 nM. Besides, the EC50 in assay [2] was over 1000 nM.

In the case of `CCc1cccc(Cl)c1NC(=O)c1cnc(Nc2ccc(C3CCN(C)CC3)c(C)c2)nc1OC` [Compound 132, N-(2-chloro-6-ethylphenyl)-4-methoxy-2-((3-methyl-4-(1-methylpiperidin-4-yl)phenyl)amino)pyrimidine-5-carboxamide], the IC50 in assay [1] was at most 10 nM. The concentration giving a half-maximal response (EC50) in assay [2] lay in the range of 100 to 500 nM.

In the case of `COc1nc(Nc2ccc(N3CCN(C)CC3)cc2)ncc1C(=O)Nc1c(Cl)cccc1Cl` [Compound 111, N-(2,6-dichlorophenyl)-4-methoxy-2-((4-(4-methylpiperazin-1-yl)phenyl)amino)pyrimidine-5-carboxamide], the IC50 in assay [1] is at most 10 nM. Moreover, the EC50 in assay [2] is 100 to 500 nM.

Take `COc1nc(Nc2cnn([C@H]3CCCN(C)CC3)c2)ncc1C(=O)Nc1c(Cl)cccc1Cl` [Compound 189, N-2,6-dichlorophenyl-2-{1-[(S)-1-methyl-4-azepanyl]-4-pyrazolylamino}-4-methoxy-5-pyrimidinecarboxamide]: in assay [1], the half-inhibitory concentration (IC50) is at most 10 nM. The EC50 in assay [2] fell in the range of 100 to 500 nM.

Turning to `CCOc1nc(Nc2ccc(OC3CCNCC3)c(C)c2)ncc1C(=O)Nc1c(Cl)cccc1Br` [Compound 221], in assay [1], the 50% inhibitory concentration (IC50) is at most 10 nM. The EC50 in assay [2] lay in the range of 100 to 500 nM.

Consider `COc1nc(Nc2ccc([C@@H]3CCN(C)C3)c(C)c2)ncc1C(=O)Nc1c(Cl)cccc1Br` [Compound 193], for which the IC50 in assay [1] is at most 10 nM. The EC50 in assay [2] is at most 100 nM.

For `COc1nc(Nc2ccc(OCCCN(C)C)c(C)c2)ncc1C(=O)Nc1c(Cl)cccc1Cl` [Compound 147, N-(2,6-dichlorophenyl)-2-((4-(3-(dimethylamino)propoxy)-3-methylphenyl)amino)-4-methoxypyrimidine-5-carboxamide], the IC50 in assay [1] was at most 10 nM. In addition, the EC50 in assay [2] was over 1000 nM.

These data come from patent publication US20260207618A1, “PYRIMIDINE CARBOXAMIDE COMPOUNDS” (Acrivon Therapeutics, Inc., priority 2022, published 2026).
